Earlier results in US10285971B2, “Formulations of water-soluble derivatives of vitamin E and soft gel compositions, concentrates and powders containing same” (VIRUN, INC., priority 2014, dated 2019).

Substance | HLB value
sucrose dipalmitate | 7.4
sucrose distearate | 3
sucrose monopalmitate | > 10
